Test results: patent US7795381B2, “Methods and materials for cancer treatment” (Mayo Foundation for Medical Education and Research, priority 2001, dated 2010)
Entries after “also recorded” stand apart in the source; their conditions may differ. No end group written: not given here.

Experiments:
Format in all cases: cell-based, human
CD4+ T cells (HTL lines) [1] = experiment: T-cell proliferative response to polypeptide, dose curve ([3H]-thymidine); details: for polypeptide concentration required to obtain 50% of the maximal proliferation: HLA-DR7-restricted HTL lines, polypeptide presented by autologous PBMC
Method: Polypeptides gp10074-89, gp100175-189 and gp100576-590 were tested for their capacity to stimulate CD4^+ T cells obtained from four healthy, MHC-typed individuals in primary in vitro cultures using polypeptide-pulsed autologous dendritic cells (DC). The method used to generate tumor antigen-reactive HTL lines and clones using polypeptide-stimulated peripheral blood mononuclear cells (PBMC) was recently described in detail (Kobayashi H et al., Cancer Res 60:5228 (2000)). Briefly, DC were generated in tissue culture from adherent monocytes that were cultured for 7 days in the presence of GM-CSF and IL-4. A total of (1×10^4) polypeptide-pulsed DC (10 μg/ml for 2 hr) were irradiated (4,200 rad) and co-cultured with 3×10^4 autologous purified CD4^+ T cells (using magnetic microbeads from Miltenyi Biotech) in each well of a 96-round bottom well culture plate. Seven days later, the cultures were restimulated with polypeptide-pulsed irradiated autologous PBMC and two days later, human rIL-2 was added at a final concentration of 10 IU/ml. After 7 days, the microcultures were tested for their proliferative responses to polypeptide as described below. Those micro-wells showing a proliferative response to polypeptide (at least 2.5 fold over background) were expanded in 24 or 48-well plates by weekly restimulation with polypeptides and irradiated autologous PBMC. In some instances T-cell lines were cloned by limiting dilution and used for further studies. […]
T cells (3×10^4/well) were mixed with irradiated APC in the presence of various concentrations of antigen (polypeptides, tumors or tumor lysates), in 96-well culture plates. […] The radioactivity incorporated into DNA, which correlates with cell proliferation, was measured in a liquid scintillation counter after harvesting the cell cultures onto glass fiber filters. […] The stimulation index (SI) was calculated by dividing the mean radioactivity (cpm) obtained in the presence of antigen by the mean radioactivity (cpm) obtained in the absence of antigen but in the presence of APC.

CD4+ T cells (HTL lines) [2] = experiment: MHC restriction analysis of HTL proliferative response (anti-HLA-DR/-DQ blocking, HLA-transfected L-cells, LCL); details: for ability to trigger HTL restricted by other alleles such as HLA-DR1 or -DR4: 2 experiments with cells from 2 donors; for MHC restriction of the induced CD4+ T-cell (HTL) proliferative response: anti-DR/anti-DQ antibody blocking, HLA-transfected L-cells, allogeneic LCL
Method: Polypeptides gp10074-89, gp100175-189 and gp100576-590 were tested for their capacity to stimulate CD4^+ T cells obtained from four healthy, MHC-typed individuals in primary in vitro cultures using polypeptide-pulsed autologous dendritic cells (DC). The method used to generate tumor antigen-reactive HTL lines and clones using polypeptide-stimulated peripheral blood mononuclear cells (PBMC) was recently described in detail (Kobayashi H et al., Cancer Res 60:5228 (2000)). Briefly, DC were generated in tissue culture from adherent monocytes that were cultured for 7 days in the presence of GM-CSF and IL-4. A total of (1×10^4) polypeptide-pulsed DC (10 μg/ml for 2 hr) were irradiated (4,200 rad) and co-cultured with 3×10^4 autologous purified CD4^+ T cells (using magnetic microbeads from Miltenyi Biotech) in each well of a 96-round bottom well culture plate. Seven days later, the cultures were restimulated with polypeptide-pulsed irradiated autologous PBMC and two days later, human rIL-2 was added at a final concentration of 10 IU/ml. After 7 days, the microcultures were tested for their proliferative responses to polypeptide as described below. Those micro-wells showing a proliferative response to polypeptide (at least 2.5 fold over background) were expanded in 24 or 48-well plates by weekly restimulation with polypeptides and irradiated autologous PBMC. In some instances T-cell lines were cloned by limiting dilution and used for further studies. Culture medium for all procedures consisted of RPMI-1640 supplemented with 5% human male AB serum, 0.1 mM MEM nonessential amino acids, 1 mM sodium pyruvate, 2 mM L-glutamine, and 50 μg/ml gentamicin.
T cells (3×10^4/well) were mixed with irradiated APC in the presence of various concentrations of antigen (polypeptides, tumors or tumor lysates), in 96-well culture plates. APC consisted of either PBMC (1×10^5/well), HLA-DR-expressing L-cells (3×10^4/well), EBV-LCL or melanoma tumor cells (3×10^4/well), pretreated with IFN-γ (500 U/ml for 48 h) to enhance MHC expression. Proliferation assays were incubated at 37° C. in a 5% CO2 incubator for 72 h and during the last 16 h, each well was pulsed with 0.5 μCi/well of [^3H]-thymidine (Amersham Pharmacia Biotech, Piscataway, N.J.). […] The radioactivity incorporated into DNA, which correlates with cell proliferation, was measured in a liquid scintillation counter after harvesting the cell cultures onto glass fiber filters. […] The stimulation index (SI) was calculated by dividing the mean radioactivity (cpm) obtained in the presence of antigen by the mean radioactivity (cpm) obtained in the absence of antigen but in the presence of APC.

[3] = test system: melanoma tumor cells or tumor lysates presented by APC; experiment: Recognition of naturally processed antigen by polypeptide-reactive HTL (proliferation, GM-CSF/IFN-γ ELISA); details: for HTL recognition of melanoma tumor cell lysates presented by autologous APC / HTL recognition of antigen presented directly by intact melanoma cells: HLA-DR7-restricted HTL lines; for HTL recognition of melanoma tumor cell lysates presented by autologous APC: 697 mel lysate; for HTL recognition of antigen presented directly by intact melanoma cells: HLA-DR7+ melanoma (HT-144); for recognition of naturally processed antigen by HTL reactive to the polypeptide: MHC class II positive melanomas or APC fed with tumor lysates
Description: Recognition of naturally processed antigen by polypeptide-reactive T-cells can be an important parameter to determine whether a predicted T-cell epitope can be used to elicit an immune response against tumor cells. HTL may recognize polypeptide/MHC class II complexes directly on tumor cells that are MHC class II positive and as a consequence the T-cells will become activated and produce cytokines that provide help to CTL or cytokines that may inhibit tumor cell growth.
T cells (3×10^4/well) were mixed with irradiated APC in the presence of various concentrations of antigen (polypeptides, tumors or tumor lysates), in 96-well culture plates. APC consisted of either PBMC (1×10^5/well), HLA-DR-expressing L-cells (3×10^4/well), EBV-LCL or melanoma tumor cells (3×10^4/well), pretreated with IFN-γ (500 U/ml for 48 h) to enhance MHC expression. Proliferation assays were incubated at 37° C. in a 5% CO2 incubator for 72 h and during the last 16 h, each well was pulsed with 0.5 μCi/well of [^3H]-thymidine (Amersham Pharmacia Biotech, Piscataway, N.J.). In some cases, culture supernatants were collected before the addition of [^3H]-thymidine for the determination of lymphokine production using ELISA kits (Pharmingen, San Diego, Calif.). The radioactivity incorporated into DNA, which correlates with cell proliferation, was measured in a liquid scintillation counter after harvesting the cell cultures onto glass fiber filters. […] The stimulation index (SI) was calculated by dividing the mean radioactivity (cpm) obtained in the presence of antigen by the mean radioactivity (cpm) obtained in the absence of antigen but in the presence of APC.

melanoma cells = experiment: Antigen-specific cytotoxicity, JAM assay; details: HLA-DQw6-restricted HTL; DQw6 positive melanoma cell line (1102 mel)
Method: The capacity of HTL lines and clones to kill tumor cells expressing the appropriate polypeptide/MHC complexes was evaluated using the JAM assay (Matzinger P, J Immunol Methods 145:185 (1991)), which measures the DNA retained by target living cells after incubation with effector T-cells. Briefly, target cells were labeled with of [^3H]-thymidine for 18 hrs in tissue culture. After washing and counting the cells, they were incubated at various effectors to target ratio in 96-well round-bottomed plates for 36 hours. The cultures were then harvested onto glass fiber filters, and the amount of radioactivity retained in DNA is measured in a scintillation counter. The percent cytotoxicity was calculated by the ratio of cpm obtained in the absence of T-cells over the cpm obtained in the presence of different amounts of T-cells X 100. All determinations were done in triplicates.

[4] = test system: PBMC from normal individuals; experiment: In vitro immunization of PBMC using polypeptide-pulsed DC (CTL induction)
Description: See, Manici et al., J Exp Med 189:871 (1999); Fujita et al., Eur J Immunol 28:305 (1998); Zarour et al., Cancer Res 60:4946 (2000); Touloukian et al., J Immunol 164:3535 (2000); Zarour et al., Proc Natl Acad Sci USA 97:400 (2000); Yasukawa et al., Blood 92:3355 (1998).

Substance	polypeptide concentration required to obtain 50% of the maximal proliferation (CD4+ T cells (HTL lines) [1])	ability to trigger HTL restricted by other alleles such as HLA-DR1 or -DR4 (CD4+ T cells (HTL lines) [2])	MHC restriction of the induced CD4+ T-cell (HTL) proliferative response (CD4+ T cells (HTL lines) [2])	HTL recognition of melanoma tumor cell lysates presented by autologous APC [3]	HTL recognition of antigen presented directly by intact melanoma cells [3]	recognition of naturally processed antigen by HTL reactive to the polypeptide [3]	cytotoxicity of polypeptide-reactive HTL (melanoma cells)	affinity of T-cell response, higher than the response to polypeptide gp10074-89 (CD4+ T cells (HTL lines) [1]; by amount of polypeptide required to achieve 50% of maximal proliferative response)	induction of anti-tumor CTL responses [4]
GPTLIGANASFSIALN [gp10074-89]	~0.6 µg/mL	not able to trigger	restricted by the HLA-DR7 allele	efficient at recognizing tumor cell lysates	effective in recognizing antigen	can recognize naturally processed antigen; also recorded: capable of recognizing naturally processed antigen	–	–	–
GRAMLGTHTMEVTVY [gp100175-189, GRAMLGTHTMEVTVY]	–	–	–	–	–	–	high levels of cytotoxicity	–	–
SLAVVSTQLIMPGQE [gp100576-590]	~0.04 µg/mL	not able to trigger	restricted by the HLA-DR7 allele	could not be detected	could not be detected	did not proliferate or produce lymphokines	–	~15 fold	–
gp100177-186: potent HLA-A2-restricted CTL epitope included in polypeptide gp100175-189 (AMLGTHTMEV; UniProt P40967 177-186, looked up, fragment)	–	–	–	–	–	–	–	–	very effective in inducing anti-tumor CTL responses
